Test results reported in publication PMC9960814, “The SlDOG1 Affect Biosynthesis of Steroidal Glycoalkaloids by Regulating GAME Expression in Tomato” (International Journal of Molecular Sciences, 2023).

Tests used:
[1] = tested on: O=c1c(O)c(-c2ccc(O)c(O)c2)oc2cc(O)cc(O)c12; test: purified protein; type: biochemical, Solanum lycopersicum; settings: 15 mM UDP-galactose as fixed glycosyl donor
SlGAME5-like = test: glycosyltransferase kinetics, […] substrate; type: biochemical, Solanum lycopersicum; settings: 15 mM UDP-galactose as fixed glycosyl donor

SlGAME5 (Solanum lycopersicum)
Km [1]: 17.50 µM

C[C@H]1CC[C@]2(NC1)O[C@H]1C[C@H]3[C@@H]4CC[C@H]5C[C@@H](O)CC[C@]5(C)[C@H]4CC[C@]3(C)[C@H]1[C@@H]2C [tomatidine]
Km (SlGAME5-like; methods print the varied substrate as tomatine): 40 µM

O=c1c(O)c(-c2ccc(O)c(O)c2)oc2cc(O)cc(O)c12 [quercetin]
Km (SlGAME5-like): 33 µM
